Source: PubChem BioAssay AID1259407 (Chemical Carcinogenesis Research Information System (CCRIS), 2018)
Calls of active or inactive are those of the source. How the calls were made is not given here.

Test system: CCRIS mutagenicity, Ames/micronucleus/aberration tests
Assay: CCRIS mutagenicity studies
[1] = Test System: AMES SALMONELLA TYPHIMURIUM, Strain/Indicator: TA98, Metabolic Activation: NONE, Method: STANDARD PLATE
[2] = Test System: AMES SALMONELLA TYPHIMURIUM, Strain/Indicator: TA98, Metabolic Activation: RAT, LIVER, S-9, AROCLOR 1254, Method: STANDARD PLATE
[3] = Test System: AMES SALMONELLA TYPHIMURIUM, Strain/Indicator: TA100, Metabolic Activation: NONE, Method: STANDARD PLATE
[4] = Test System: AMES SALMONELLA TYPHIMURIUM, Strain/Indicator: TA100, Metabolic Activation: RAT, LIVER, S-9, AROCLOR 1254, Method: STANDARD PLATE
[5] = Test System: AMES SALMONELLA TYPHIMURIUM, Strain/Indicator: TA1535, Metabolic Activation: NONE, Method: STANDARD PLATE
[6] = Test System: AMES SALMONELLA TYPHIMURIUM, Strain/Indicator: TA1535, Metabolic Activation: RAT, LIVER, S-9, AROCLOR 1254, Method: STANDARD PLATE
[7] = Test System: AMES SALMONELLA TYPHIMURIUM, Strain/Indicator: TA1537, Metabolic Activation: NONE, Method: STANDARD PLATE
[8] = Test System: AMES SALMONELLA TYPHIMURIUM, Strain/Indicator: TA1537, Metabolic Activation: RAT, LIVER, S-9, AROCLOR 1254, Method: STANDARD PLATE
[9] = Test System: AMES SALMONELLA TYPHIMURIUM, Strain/Indicator: TA1538, Metabolic Activation: NONE, Method: STANDARD PLATE
[10] = Test System: AMES SALMONELLA TYPHIMURIUM, Strain/Indicator: TA1538, Metabolic Activation: RAT, LIVER, S-9, AROCLOR 1254, Method: STANDARD PLATE

Measured: mutagenic call

CSC[C@H](NC(=O)COc1cccc2cnccc12)C(=O)N[C@@H](Cc1ccccc1)[C@H](O)C(=O)N1CSC[C@H]1C(=O)NC(C)(C)C
inactive: Test System: AMES SALMONELLA TYPHIMURIUM, Strain/Indicator: TA98, Metabolic Activation: HAMSTER, LIVER, S-9, AROCLOR 1254, Method: STANDARD PLATE inactive; negative | [1] inactive; negative | [2] inactive; negative | Test System: AMES SALMONELLA TYPHIMURIUM, Strain/Indicator: TA100, Metabolic Activation: HAMSTER, LIVER, S-9, AROCLOR 1254, Method: STANDARD PLATE inactive; negative | [3] inactive; negative | [4] inactive; negative | Test System: AMES SALMONELLA TYPHIMURIUM, Strain/Indicator: TA1535, Metabolic Activation: HAMSTER, LIVER, S-9, AROCLOR 1254, Method: STANDARD PLATE inactive; negative | [5] inactive; negative | [6] inactive; negative | Test System: AMES SALMONELLA TYPHIMURIUM, Strain/Indicator: TA1537, Metabolic Activation: HAMSTER, LIVER, S-9, AROCLOR 1254, Method: STANDARD PLATE inactive; negative | [7] inactive; negative | [8] inactive; negative | Test System: AMES SALMONELLA TYPHIMURIUM, Strain/Indicator: TA1538, Metabolic Activation: HAMSTER, LIVER, S-9, AROCLOR 1254, Method: STANDARD PLATE inactive; negative | [9] inactive; negative | [10] inactive; negative | Test System: Mouse lymphoma, Strain/Indicator: L5178Y (tk+/tk-), Metabolic Activation: None, Method: Suspension/plate inactive; negative
active: Test System: Mouse lymphoma, Strain/Indicator: L5178Y (tk+/tk-), Metabolic Activation: Rat, Liver, S-9, Aroclor 1254, Method: Suspension/plate active; equivocal (previous evaluation positive)

Nc1ccc2c(n1)[nH]c1ccccc12
active: Test System: AMES SALMONELLA TYPHIMURIUM, Strain/Indicator: TA98, Metabolic Activation: MONKEY, LIVER, S-9, Method: PREINCUBATION active; positive | Test System: AMES SALMONELLA TYPHIMURIUM, Strain/Indicator: TA98, Metabolic Activation: RAT, LIVER, S-9, AROCLOR 1254, Method: PREINCUBATION active; positive | Test System: AMES SALMONELLA TYPHIMURIUM, Strain/Indicator: TA100, Metabolic Activation: RAT, LIVER, S-9, AROCLOR 1254, Method: PREINCUBATION active; positive | Test System: AMES SALMONELLA TYPHIMURIUM, Strain/Indicator: YG1019, Metabolic Activation: RAT LIVER S-9, AROCLOR, Method: PREINCUBATION active; positive

NC(=O)c1cnccn1
inactive: Test System: AMES SALMONELLA TYPHIMURIUM, Strain/Indicator: TA98, Metabolic Activation: HAMSTER, LIVER, S-9, AROCLOR 1254 (10%), Method: PREINCUBATION inactive; negative | Test System: AMES SALMONELLA TYPHIMURIUM, Strain/Indicator: TA98, Metabolic Activation: NONE, Method: PREINCUBATION inactive; negative | Test System: AMES SALMONELLA TYPHIMURIUM, Strain/Indicator: TA98, Metabolic Activation: RAT, LIVER, S-9, AROCLOR 1254 (10%), Method: PREINCUBATION inactive; negative | Test System: AMES SALMONELLA TYPHIMURIUM, Strain/Indicator: TA100, Metabolic Activation: HAMSTER, LIVER, S-9, AROCLOR 1254 (10%), Method: PREINCUBATION inactive; negative | Test System: AMES SALMONELLA TYPHIMURIUM, Strain/Indicator: TA100, Metabolic Activation: NONE, Method: PREINCUBATION inactive; negative | Test System: AMES SALMONELLA TYPHIMURIUM, Strain/Indicator: TA100, Metabolic Activation: RAT, LIVER, S-9, AROCLOR 1254 (10%), Method: PREINCUBATION inactive; negative | Test System: AMES SALMONELLA TYPHIMURIUM, Strain/Indicator: TA1535, Metabolic Activation: HAMSTER, LIVER, S-9, AROCLOR 1254 (10%), Method: PREINCUBATION inactive; negative | Test System: AMES SALMONELLA TYPHIMURIUM, Strain/Indicator: TA1535, Metabolic Activation: NONE, Method: PREINCUBATION inactive; negative | Test System: AMES SALMONELLA TYPHIMURIUM, Strain/Indicator: TA1535, Metabolic Activation: RAT, LIVER, S-9, AROCLOR 1254 (10%), Method: PREINCUBATION inactive; negative | Test System: AMES SALMONELLA TYPHIMURIUM, Strain/Indicator: TA1537, Metabolic Activation: HAMSTER, LIVER, S-9, AROCLOR 1254 (10%), Method: PREINCUBATION inactive; negative | Test System: AMES SALMONELLA TYPHIMURIUM, Strain/Indicator: TA1537, Metabolic Activation: NONE, Method: PREINCUBATION inactive; negative | Test System: AMES SALMONELLA TYPHIMURIUM, Strain/Indicator: TA1537, Metabolic Activation: RAT, LIVER, S-9, AROCLOR 1254 (10%), Method: PREINCUBATION inactive; negative

CC(=O)Nc1ccc2ccc3c(O)ccc4ccc1c2c43
inactive: Test System: AMES SALMONELLA TYPHIMURIUM, Strain/Indicator: TA98(1,8-DNP6), Metabolic Activation: NONE, Method: STANDARD PLATE inactive; negative | Test System: AMES SALMONELLA TYPHIMURIUM, Strain/Indicator: TA98(1,8-DNP6), Metabolic Activation: RAT, LIVER, S-9, AROCLOR 1254, Method: STANDARD PLATE inactive; negative | Test System: AMES SALMONELLA TYPHIMURIUM, Strain/Indicator: YG1024, Metabolic Activation: NONE, Method: STANDARD PLATE inactive; negative
active: [2] active; positive | Test System: AMES SALMONELLA TYPHIMURIUM, Strain/Indicator: YG1024, Metabolic Activation: RAT, LIVER, S-9, AROCLOR 1254, Method: STANDARD PLATE active; positive

CCCCOCCOCCOCc1cc2c(cc1CCC)OCO2
inactive: End Point: IN VITRO CHROMOSOMAL ABERRATIONS, Test System: CHINESE HAMSTER OVARY CELLS, Metabolic Activation: NONE inactive; negative; precipitation occurred at 287 ug/ml | End Point: IN VITRO CHROMOSOMAL ABERRATIONS, Test System: CHINESE HAMSTER OVARY CELLS, Metabolic Activation: RAT, LIVER, S-9, AROCLOR 1254 inactive; negative; precipitation occurred at 496 ug/ml | Test System: AMES SALMONELLA TYPHIMURIUM, Strain/Indicator: TA97, Metabolic Activation: NONE, Method: PREINCUBATION inactive; negative | Test System: AMES SALMONELLA TYPHIMURIUM, Strain/Indicator: TA97, Metabolic Activation: RAT, LIVER, S-9, AROCLOR 1254, Method: PREINCUBATION inactive; negative | [1] inactive; negative | [2] inactive; negative | [3] inactive; negative | [4] inactive; negative | Test System: AMES SALMONELLA TYPHIMURIUM, Strain/Indicator: TA102, Metabolic Activation: NONE, Method: PREINCUBATION inactive; negative | Test System: AMES SALMONELLA TYPHIMURIUM, Strain/Indicator: TA102, Metabolic Activation: RAT, LIVER, S-9, AROCLOR 1254, Method: PREINCUBATION inactive; negative | [5] inactive; negative | [6] inactive; negative | [7] inactive; negative | [8] inactive; negative | [9] inactive; negative | [10] inactive; negative | Test System: CHINESE HAMSTER OVARY, Strain/Indicator: CHO-K1-BH4 (HGPRT)/6-THIOGUANINE, Metabolic Activation: NONE inactive; negative | Test System: CHINESE HAMSTER OVARY, Strain/Indicator: CHO-K1-BH4 (HGPRT)/6-THIOGUANINE, Metabolic Activation: RAT, LIVER, S-9, AROCLOR 1254 inactive; negative | Test System: UDS HUMAN HEPATOCYTES, Strain/Indicator: THY INCORP, Metabolic Activation: NONE, Method: AUTORADIOGRAPHY inactive; negative | Test System: UDS RAT HEPATOCYTES, Strain/Indicator: THY INCORP, Metabolic Activation: NONE, Method: AUTORADIOGRAPHY inactive; negative
